Laboratory results taken from US7659252B2, “Transdermal delivery peptides and method of use thereof” (Novomed Technologies, Inc. (Shanghai), priority 2005, dated 2010).

Tests used:
male Sprague-Dawley rats [1] = assay: Transdermal PT-141 delivery: penile erections, chasing, mounting; format: in vivo, rat; details: cream, 1 h observation
Experimental: (§1) All behavioral studies were performed from 9:00 am to 4:00 pm at 24±1° C. While the animals were anesthetized with Urethane, the hair in an area of approximately 3.0 cm×3.0 cm in the interscapular region was carefully trimmed using scissors, with caution not to damage the skin (rats with any visible sign of skin damage were not used). Rats were allowed to recover for at least 24 hours before the experiments. One hundred ul cream containing indicated amounts of PT-141 was placed on the exposed skin and spread evenly using the side of a pipet tip.
Testing rats were divided into four groups with each group contain 6 rats.
Immediately after administration, rats were placed into individual polystyrene cages (32 cm long, 30 cm wide, 30 cm high) for behavioral observation. […] According to methods described by Berendsen and Broekkamp (1987, Eur. J. Pharmacol. 135(3):279-87), a penile erection was present when the following is observed: repeated pelvic thrust immediately followed by an upright position, an emerging engorged penis which the rat licks while eating the ejaculate. In addition, chasing was observed when the male moves forward along the female's side with its mouth licking the female's genital area, while mounting was present when the male's both front feet are off the ground and plant on the female's rump without ejaculation (Naby et al., 1992, Horm. Behav. 26:24; Randy et al., 1995, Nature 378:383).

Male Wistar rats = assay: Phage delivery across trimmed abdominal skin, phage titre in tail-vein blood; format: in vivo, rat
Experimental: Phage delivery: Male Wistar rats (180 g to 220 g) were housed at a constant temperature (22° C.) and relative humidity (60%) with a fixed 12 hr. light/dark cycle, and free access to food and water. While the animals were anesthetized with Vrethane (5 ml/kg of 20% solution), the hair in an area of approximately 3.0 cm×3.0 cm on the abdomen was carefully trimmed using scissors, with caution not to damage the skin (rats with any visible sign of skin damage were not used). […] One hour after the phage administration blood was withdrawn from the tail vein and immediately assayed for phage titre according to manufacturer's protocol.

hair follicles = assay: Microscopy of skin sections: hair follicle penetration; format: in vivo, rat; details: for follicular penetration of insulin-FITC: 10 μg insulin-FITC co-administered with enhancer, 2 h, abdominal skin
Experimental: In particular, Insulin-FITC (Xi-an Huacheng, Xi-an, China) was dissolved in a small amount of DMF and subsequently diluted in saline for topical administration (final DMF concentration was <0.2%). […] After 2 hours the skin was carefully cleaned by 70% isopropyl alcohol and harvested by dissecting. The isolated skin was fixed with ice-cold 4% paraformaldehyde in 0.1 M phosphate buffer (PH 7.4) overnight. Following several washes with 10 mM phosphate-buffered saline (PBS PH7.4), skin samples were immersed in PBS containing 4.5% sucrose for 24 hours and then dehydrated in 10 mM PBS containing 30% sucrose till deposition. Floating horizontal and vertical sections with a thickness of 20 μm were obtained on a freezing microtome (CM1900 LEICA, Heidelberger, Nussloch, Germany). Cryosections were mounted onto poly-L-lysine-coated glasses, dried at room temperature and enveloped with 10 μl […] Mounting Medium (Vector Laboratories, Burlingame, Calif.). Fluorescence photomicrographs of the sections were obtained with OLYMPUS IX-70 microscope (OLYMPUS, Tokyo, Japan) using a filter set having excitation and emission length at 490-495 nm and 520-530 nm, respectively.

[2] = system: streptozotocin-induced diabetic rats; assay: Transdermal insulin delivery: serum insulin and blood glucose; format: in vivo, rat; details: for transdermal activity for delivering insulin compared to TD-1 / Blood Glucose Mean: 500 μg peptide + 70 μg insulin topical; for transdermal activity for delivering insulin compared to TD-1: 5 hrs; for Blood Glucose Mean: 5 hr value as % of the 0 hr value
Experimental: Insulin delivery: In particular, male Wistar rats were given intraperitoneal injection of straptozotocin (60 mg/kg; Sigma-Aldrich, St. Louis, […].) to make these rats in diabetic states. Seven to 10 days post injection blood glucose level was measured using One-Touch Ultra Glucometer (LifeScan, Milpitas, Calif.). The straptozocin-induced (SD-induced) diabetic rats with blood glucose level of over 20 mmol/l (normal rats are between 4 and 6 mmol/l) were selected and randomly assigned to different treatment groups, with 6 rats for each group. […] The SLA/PP is a chemical enhancer combination recently identified from high-throughput screening (Karande et al., […], Nature Biotech. 22:192). Moreover, in other transdermal treatment groups, 100 μl saline was given to each rat in that group. For the subcutaneous treatment group, 14 μg of insulin per rat was injected.
Blood was drawn from the rat tail vein at these time points and assayed for blood glucose as described above and serum insulin by radioimmunoassay (Immunotech, Czech).
Blood glucose and serum insulin were measured before and 5 hrs. after the administration as described above.

male Sprague-Dawley rats [3] = assay: Transdermal apomorphine delivery, APO-induced penile erections; format: in vivo, rat; details: for effect on APO transdermal delivery (APO-induced penile erections): peptide 2.0 mg/kg + APO 0.8 mg/kg, cream, 2 h observation
Experimental: as §1, with “apomorphine (APO)” for “PT-141”
Immediately after administration, rats were placed into individual polystyrene cages (32 cm long, 30 cm wide, 30 cm high) for behavioral observation. […] According to methods described by Berendsen and Broekkamp (1987, Eur. J. Pharmacol. 135(3):279-87), a penile erection was present when the following is observed: repeated pelvic thrust immediately followed by an upright position, an emerging engorged penis which the rat licks while eating the ejaculate.

insulin = molecular target: T1, insulin (Sus scrofa, UniProt P01315); assay: ELISA direct interaction between TD-1 and insulin (incl. reverse scheme); format: binding, porcine
T1 construct: pharmaceutical-grade (>98%, 30 IU/mg) porcine insulin; purchased Xuzhou Pharmaceuticals
Experimental: Insulin (100 μg) and a guinea pig anti-porcine insulin antibody (Atom High-Tech, used at 1:1000 dilution), in 100 μl of PBS, was added to each well and incubated for 2 hrs. at 37° C. After washing 6× with PBST, the plate was incubated with 1:2000 dilution of anti-guinea pig IgG conjugated with HRP (Chang-Dao Biotechnology Co. Ltd., Shanghai, China) for 1 hr. at 37° C. The plate was washed 6× with PBST, followed by the addition of 100 μl/well of TMB substrate. After incubation at room temperature for 10 mins and additional of stop solution (1 M H2SO4), absorbance was read at 450/630 nm in an ELISA reader. As a positive control, 1 ng to 1 μg of insulin was coated directly on the plates and was detected by the same procedure as described above. In areverse interaction scheme, ELISA plate wells were coated with 1 μg to 1 mg of insulin, blocked with BSA, incubated with TD-1-AngII fusion peptide (100 μg per well), incubated with rabbit polyclonal antibody against human angiotensin II (Atom High-Tech, used at 1:1000) and 1:2000 of anti-rabbit IgG conjugated with HRP (Zhong Shan Golden Bridge Biotechnology, Beijing, China), and finally assayed by TMB color reactionm using the same protocol as described above. The control for this reverse scheme experiment used 1 μg of TD-1-AngII coated directly to the wells.

^125I-insulin = molecular target: T2, ^125I-insulin (Sus scrofa, UniProt P01315); assay: Direct interaction between coated TD-1 and ^125I-insulin; format: binding, porcine; details: up to 1 mg TD-1 per well
T2 construct: purchased Beijing Atom HighTech
Experimental: After extensive washing with PBST (PBS+0.1% Tween-20), radioactivity was measured with Gamma Radioimmunoassay Counter.

[4] = DLS measurements of insulin with or without TD-1; format: physicochemical
Experimental: The solutions were transferred to a centrifuge tube and spun for 10 min at 10000 rpm. 40 μl of the supernatant were filtered by ANODISC™ membrane filter with a pore size of 0.02 μm (Whatman International, Maidstone, UK) and taken for DLS measurement using DynaPro™ MS 800 (Wyatt technology Corporation/Protein Solutions, Santa Barbara, Calif.).

[5] = peptide topically co-administered with PH-1
[6] = PT-141 160 μg/kg + peptide 240 μg/kg
[7] = insulin-FITC 10 μg + TD-1, time course
[8] = 500 μg TD-1 + 70 μg porcine insulin, topical
[9] = co-administered with 70 μg insulin, 5 hours
[10] = co-administered TD-1 fixed at 500 μg, 5 hours

T1 sequence (P01315 25-54 limits assumed): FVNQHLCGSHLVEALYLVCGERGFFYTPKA
T1 sequence (P01315 88-108 limits assumed): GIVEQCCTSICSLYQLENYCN
T2 sequence (P01315 25-54 limits assumed): as the sequence (P01315 25-54 limits assumed) above

CCCC[C@H](NC(C)=O)C(=O)N[C@H]1CC(=O)NCCCC[C@@H](C(=O)O)NC(=O)[C@H](Cc2c[nH]c3ccccc23)NC(=O)[C@H](CCCNC(=N)N)NC(=O)[C@@H](Cc2ccccc2)NC(=O)[C@H](Cc2c[nH]cn2)NC1=O [PT-141, Ac-Nle-Asp-His-D-Phe-Arg-Trp-Lys-OH]
numbers of PEs, chasing and mounting (male Sprague-Dawley rats [1]; PT-141 160 μg/kg alone): did not significantly increase

ACNATLPHQCG [AP-1, reference compound]
transdermal activity relative to phage PH-1 (Male Wistar rats; 1 hour post topical administration): less than 0.2%
effect on transdermal activity of phages carrying the TD-2 peptide (PH-1) (Male Wistar rats; [5]): no effect
follicular penetration of insulin-FITC (hair follicles): did not lead to follicular penetration
numbers of PEs, chasing and mounting (male Sprague-Dawley rats [1]; [6]): did not significantly increase
elevating serum insulin and lowering blood glucose levels ([2]; control enhancer co-administered with 70 μg insulin, topical): ineffective
effect on APO transdermal delivery (APO-induced penile erections) (male Sprague-Dawley rats [3]): no effect

ACSASPSKHCG [TD-24]
transdermal activity for delivering insulin compared to TD-1 [2]: statistically significant loss of activity
Blood Glucose Mean [2]: 82.17%

ACSSSASKHCG [TD-3]
transdermal activity for delivering insulin compared to TD-1 [2]: almost completely loss of activity
Blood Glucose Mean [2]: 89.80%

ACSSSPAKHCG [TD-6]
transdermal activity for delivering insulin compared to TD-1 [2]: statistically significant loss of activity
Blood Glucose Mean [2]: 66.65%

ACSSSPSAHCG [TD-22]
transdermal activity for delivering insulin compared to TD-1 [2]: statistically significant loss of activity
Blood Glucose Mean [2]: 85.90%

ACSSSPSDHCG [TD-4]
transdermal activity for delivering insulin compared to TD-1 [2]: almost completely loss of activity
Blood Glucose Mean [2]: 89.68%

ACSSSPSKACG [TD-23]
transdermal activity for delivering insulin compared to TD-1 [2]: statistically significant loss of activity
Blood Glucose Mean [2]: 81.36%

ACSSSPSKHCG [TD-1]
direct binding to insulin (conclusion of binding assays) (insulin): does not bind insulin directly
insulin bound to precoated TD-1 (insulin; wells coated with increasing amounts of TD-1, 100 μg insulin): No significant amount of insulin was found to bind
tested rats in which enhanced transdermal penetration of a control phage was observed (Male Wistar rats; co-administered with control phage, data not shown): 20%
amount that completely abolished the transdermal activity of PH-1 (Male Wistar rats; [5]): over 5 μg
effect on transdermal activity of phages carrying the TD-2 peptide (PH-1) (Male Wistar rats; [5]): dose-dependent manner
follicular penetration of insulin-FITC (hair follicles): penetration of insulin-FITC deep into hair follicles
relation of waiting period to extent of follicular penetration of insulin-FITC (hair follicles; TD-1 5 min, washed, waiting 0-60 min before insulin-FITC): inversely proportional
duration of follicular penetration of insulin-FITC (hair follicles; [7]): at least 24 hours
earliest time follicular penetration of insulin-FITC detectable (hair follicles; [7]): 30 min
time of maximum follicular penetration of insulin-FITC (hair follicles; [7]): 2 h
numbers of PEs, chasing and mounting (male Sprague-Dawley rats [1]; [6]): significantly increased
time at which decrease of blood glucose was seen [2, 8]: 2 h
time of lowest blood glucose level [2, 8]: 8 h
lowest blood glucose level ([2]; 500 μg TD-1 + 70 μg porcine insulin, topical, at 8 hours): < 25 % of the initial blood glucose level
effect on blood glucose or serum insulin level ([2]; 500 μg TD-1 alone, without insulin, topical): no effect
Blood Glucose Mean [2]: 38.68%
TD-1 amount at which transdermal-enhancing effect reached maximum [2, 9]: > 500 µg
TD-1 amount without significant insulin-elevating and glucose-lowering effect [2, 9]: < 20 µg
^125I-insulin bound to wells precoated with TD-1 (^125I-insulin): No significant radioactivity above the background level
time at which most PEs occurred (male Sprague-Dawley rats [3]; APO 0.8 mg/kg + TD-1 2.0 mg/kg): during the second hour
number of PEs (male Sprague-Dawley rats [3]; TD-1 0.4 mg/kg + APO 0.8 mg/kg): did not significantly increase
transdermal-enhancing effect (number of PEs) (male Sprague-Dawley rats [3]; TD-1 0.8, 2.0 and 3.2 mg/kg + APO 0.8 mg/kg): reached maximum
effect on APO transdermal delivery (APO-induced penile erections) (male Sprague-Dawley rats [3]): facilitates transdermal APO delivery

ACSSSSSKHCG [TD-10]
transdermal activity for delivering insulin compared to TD-1 [2]: only a slight, insignificant decrease in activity
Blood Glucose Mean [2]: 53.79%

CSSSPSKHC [TD-2]
transdermal activity for delivering insulin compared to TD-1 [2]: statistically significant loss of activity
Blood Glucose Mean [2]: 68.44%

insulin: pharmaceutical-grade (>98%, 30 IU/mg) porcine insulin (Xuzhou Pharmaceuticals)
duration of insulin-elevating and glucose-lowering effect ([2]; 14 μg insulin, subcutaneous injection): less than 5 hours
insulin amount needed to achieve the maximum response [2, 10]: ≥ 70 µg
insulin amount sufficient to significantly enhance serum insulin and lower blood glucose [2, 10]: 35 µg
MW-R Mean ([4]; pH 2.0, saline): 14,585 Da
Radius Mean ([4]; pH 2.0, saline): 1.9 nm
MW-R Mean ([4]; pH 2.0, saline, listed as Ins): 14585 Da
MW-R Mean ([4]; pH 3.0, saline): 20,343 Da
Radius Mean ([4]; pH 3.0, saline): 2.2 nm
MW-R Mean ([4]; pH 3.0, saline, listed as Ins): 20343 Da
MW-R Mean ([4]; pH 7.0, saline): 32,328 Da
Radius Mean ([4]; pH 7.0, saline): 2.6 nm
MW-R Mean ([4]; pH 7.0, saline, listed as Ins): 32328 Da
